Values belong to the compound of their own block, whether it stands above or below them.
What was measured:
[1] = Half life in BALBc mouse at 10 mg/kg, iv by LC-MS/MS analysis; format: ADME, organism-based; details: BALB/c, in vivo
[2] = Oral bioavailability in BALBc mouse by LC-MS/MS analysis; format: ADME, organism-based; details: BALB/c, in vivo
[3] = biological target: T1, 6-phosphofructo-2-kinase/fructose-2,6-bisphosphatase 3 (Homo sapiens, UniProt Q16875); experiment: Inhibition of PFKFB3 (unknown origin) at 250 nM relative to control
[4] = AUC in BALBc mouse at 10 mg/kg, iv by LC-MS/MS analysis; format: ADME, organism-based; parameters: dose 10 mg/kg, route iv; details: BALB/c, in vivo
[5] = Cytotoxicity against human Epithelial cell assessed as cell growth inhibition; format: toxicity, cell-based; details: epithelial cells
[6] = system: HeLa; experiment: Antiproliferative activity against human HeLa cells assessed as cell growth inhibition; format: functional
[7] = biological target: T1, 6-phosphofructo-2-kinase/fructose-2,6-bisphosphatase 3; format: cell-based, PANC-1
[8] = biological target: T1, 6-phosphofructo-2-kinase/fructose-2,6-bisphosphatase 3; experiment: Inhibition of full-length human PFKFB3 (1 to 520 residues) incubated for 2 hrs in presence of ATP by ADP-Glo assay
[9] = biological target: T1, 6-phosphofructo-2-kinase/fructose-2,6-bisphosphatase 3; experiment: Inhibition of PFKFB3 (unknown origin) by ADP-Glo luminescent assay
[10] = biological target: T1, 6-phosphofructo-2-kinase/fructose-2,6-bisphosphatase 3; experiment: Inhibition of PFKFB3 (unknown origin)
[11] = biological target: T1, 6-phosphofructo-2-kinase/fructose-2,6-bisphosphatase 3; experiment: Binding affinity to PFKFB3 (unknown origin) by MST assay
[12] = Metabolic stability in human liver microsomes; format: ADME, Microsome
[13] = Toxicity in Sprague-Dawley rat assessed as maximum tolerated dose; details: in vivo
[14] = Half life in BALB/c mouse at 5 mg/kg, iv by LC-MS/MS analysis; format: ADME, organism-based; details: in vivo
[15] = AUC in BALB/c mouse at 5 mg/kg, iv by LC-MS/MS analysis; format: ADME, organism-based; parameters: dose 5 mg/kg, route iv; details: in vivo
[16] = Clearance in BALB/c mouse at 5 mg/kg, iv by LC-MS/MS analysis; format: ADME, organism-based; details: in vivo
[17] = biological target: T1, 6-phosphofructo-2-kinase/fructose-2,6-bisphosphatase 3; experiment: Inhibition of PFKFB3 (unknown origin) by UV-vis spectrophotometry
[18] = biological target: T1, 6-phosphofructo-2-kinase/fructose-2,6-bisphosphatase 3; format: cell-based, NUGC-3
[19] = biological target: T1, 6-phosphofructo-2-kinase/fructose-2,6-bisphosphatase 3; format: cell-based, MIA PaCa-2
[20] = AUC in Beagle dog at 6 mg/kg, iv by LC-MS/MS analysis; format: ADME, organism-based, Canis lupus familiaris; parameters: dose 6 mg/kg, route iv; details: in vivo
[21] = Oral bioavailability in Beagle dog by LC-MS/MS analysis; format: ADME, organism-based, Canis lupus familiaris; details: in vivo
[22] = Half life in Beagle dog at 6 mg/kg, iv by LC-MS/MS analysis; format: ADME, organism-based, Canis lupus familiaris; details: in vivo
[23] = system: A549; experiment: Antiproliferative activity against human A549 cells assessed as cell growth inhibition measured after 72 hrs by MTT assay; format: functional
[24] = biological target: T1, 6-phosphofructo-2-kinase/fructose-2,6-bisphosphatase 3; experiment: Inhibition of PFKFB3 (unknown origin) at 100 uM relative to control
[25] = system: HT-29; experiment: Antiproliferative activity against human HT-29 cells assessed as cell growth inhibition measured after 72 hrs by MTT assay; format: functional
[26] = system: MDA-MB-231; experiment: Antiproliferative activity against human MDA-MB-231 cells assessed as cell growth inhibition measured after 72 hrs by MTT assay; format: functional
[27] = system: HeLa; experiment: Antiproliferative activity against human HeLa cells assessed as cell growth inhibition measured after 72 hrs by MTT assay; format: functional
[28] = AUC in Sprague-Dawley rat at 10 mg/kg, iv by LC-MS/MS analysis; format: ADME, organism-based; parameters: dose 10 mg/kg, route iv; details: in vivo
[29] = Oral bioavailability in Sprague-Dawley rat by LC-MS/MS analysis; format: ADME, organism-based; details: in vivo
[30] = Volume of distribution in Sprague-Dawley rat at 10 mg/kg, iv by LC-MS/MS analysis; format: ADME, organism-based; details: in vivo
[31] = Cmax in Sprague-Dawley rat at 10 mg/kg, iv by LC-MS/MS analysis; format: ADME, organism-based; parameters: dose 10 mg/kg, route iv; details: in vivo
[32] = Half life in Sprague-Dawley rat at 10 mg/kg, iv by LC-MS/MS analysis; format: ADME, organism-based; details: in vivo
[33] = biological target: T1, 6-phosphofructo-2-kinase/fructose-2,6-bisphosphatase 3; experiment: Inhibition of PFKFB3 (unknown origin) incubated for 90 mins by ADP-Glo luminescent assay
[34] = biological target: 6-phosphofructo-2-kinase/fructose-2,6-bisphosphatase 4 (Homo sapiens) (UniProt Q16877); experiment: Inhibition of PFKFB4 (unknown origin) at 5.94 uM relative to control
[35] = biological target: 6-phosphofructo-2-kinase/fructose-2,6-bisphosphatase 1 (Homo sapiens) (UniProt P16118); experiment: Inhibition of PFKFB1 (unknown origin) at 5.94 uM relative to control
[36] = biological target: 6-phosphofructo-2-kinase/fructose-2,6-bisphosphatase 2 (Homo sapiens) (UniProt O60825); experiment: Inhibition of PFKFB2 (unknown origin) at 5.94 uM relative to control
[37] = Metabolic stability in mouse liver microsomes assessed as clearance; format: ADME, Microsome; details: read-out: CLH
[38] = Metabolic stability in human liver microsomes assessed as clearance; format: ADME, Microsome; details: read-out: CLH
[39] = Half life in iv dosed C57BL/6 mouse by LC-MS/MS analysis; format: ADME, organism-based; details: in vivo

T1 sequence (Q16875 whole entry): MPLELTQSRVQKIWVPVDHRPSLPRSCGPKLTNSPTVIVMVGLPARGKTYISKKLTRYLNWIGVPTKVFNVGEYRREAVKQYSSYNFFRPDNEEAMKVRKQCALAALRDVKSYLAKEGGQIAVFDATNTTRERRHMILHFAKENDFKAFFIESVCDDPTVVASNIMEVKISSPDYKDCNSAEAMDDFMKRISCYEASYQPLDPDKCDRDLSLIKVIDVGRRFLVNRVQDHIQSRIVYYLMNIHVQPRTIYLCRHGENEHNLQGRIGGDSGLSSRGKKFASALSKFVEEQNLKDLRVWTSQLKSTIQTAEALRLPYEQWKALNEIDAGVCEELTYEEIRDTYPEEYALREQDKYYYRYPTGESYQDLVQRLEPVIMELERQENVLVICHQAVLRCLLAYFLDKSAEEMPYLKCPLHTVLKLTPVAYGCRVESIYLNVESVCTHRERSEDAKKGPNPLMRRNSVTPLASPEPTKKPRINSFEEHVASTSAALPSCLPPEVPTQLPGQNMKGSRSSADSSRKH
Sequence of 6-phosphofructo-2-kinase/fructose-2,6-bisphosphatase 2 (Homo sapiens) (O60825 2-505 limits assumed): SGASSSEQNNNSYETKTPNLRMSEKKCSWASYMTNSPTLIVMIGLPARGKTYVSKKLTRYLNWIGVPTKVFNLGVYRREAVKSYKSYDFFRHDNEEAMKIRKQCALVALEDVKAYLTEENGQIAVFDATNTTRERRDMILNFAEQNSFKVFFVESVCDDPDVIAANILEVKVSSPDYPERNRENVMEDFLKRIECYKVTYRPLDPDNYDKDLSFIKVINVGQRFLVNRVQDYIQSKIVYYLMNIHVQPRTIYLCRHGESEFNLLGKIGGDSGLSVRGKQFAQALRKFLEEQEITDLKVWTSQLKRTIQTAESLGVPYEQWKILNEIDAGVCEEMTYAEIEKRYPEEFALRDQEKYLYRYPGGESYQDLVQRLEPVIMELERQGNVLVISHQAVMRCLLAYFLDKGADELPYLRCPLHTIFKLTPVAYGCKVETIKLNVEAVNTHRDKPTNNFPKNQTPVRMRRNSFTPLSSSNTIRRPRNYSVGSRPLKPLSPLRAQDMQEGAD
Sequence of 6-phosphofructo-2-kinase/fructose-2,6-bisphosphatase 4 (Homo sapiens) (Q16877 whole entry, looked up): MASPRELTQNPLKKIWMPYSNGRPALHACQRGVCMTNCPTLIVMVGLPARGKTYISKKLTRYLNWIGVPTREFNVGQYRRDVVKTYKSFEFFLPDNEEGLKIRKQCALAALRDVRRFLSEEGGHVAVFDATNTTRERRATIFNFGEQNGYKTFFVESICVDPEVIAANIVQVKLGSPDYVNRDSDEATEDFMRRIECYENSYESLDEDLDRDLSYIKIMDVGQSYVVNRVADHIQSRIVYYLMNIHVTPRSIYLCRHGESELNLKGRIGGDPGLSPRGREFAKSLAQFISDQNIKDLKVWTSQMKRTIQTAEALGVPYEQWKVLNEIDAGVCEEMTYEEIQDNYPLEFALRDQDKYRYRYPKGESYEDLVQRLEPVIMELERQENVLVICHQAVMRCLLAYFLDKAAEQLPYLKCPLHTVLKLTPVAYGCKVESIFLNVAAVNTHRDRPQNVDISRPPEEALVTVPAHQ
Sequence of 6-phosphofructo-2-kinase/fructose-2,6-bisphosphatase 1 (Homo sapiens) (P16118 2-471 limits assumed): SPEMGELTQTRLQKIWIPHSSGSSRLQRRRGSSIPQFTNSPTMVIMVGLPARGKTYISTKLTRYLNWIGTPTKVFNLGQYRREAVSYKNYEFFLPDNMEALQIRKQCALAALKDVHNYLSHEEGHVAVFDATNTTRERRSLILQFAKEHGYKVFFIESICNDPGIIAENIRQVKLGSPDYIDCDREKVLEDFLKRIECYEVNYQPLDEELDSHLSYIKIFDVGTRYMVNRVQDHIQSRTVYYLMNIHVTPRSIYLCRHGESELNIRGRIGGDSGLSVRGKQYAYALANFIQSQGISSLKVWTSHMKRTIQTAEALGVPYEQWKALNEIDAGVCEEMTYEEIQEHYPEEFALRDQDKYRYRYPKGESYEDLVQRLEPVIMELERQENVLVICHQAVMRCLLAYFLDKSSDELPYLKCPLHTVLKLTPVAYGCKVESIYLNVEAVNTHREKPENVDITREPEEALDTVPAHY

- half-life [1]: 2.1 h
- bioavailability [2]: 25%
- inhibition [3]: 13.5%
- AUC [4]: 2630 ng·h/mL
SMILES: O=C(c1ccccc1)c1cc2c(ccc3ccccc32)[nH]1

SMILES: O=C(/C=C/c1cccnc1)c1ccncc1
- IC50 [5]: 1.4 µM

- GI50 [6]: 2.7 µM
SMILES: CCOC(=O)c1cc2ccc(O)cc2oc1=O

- IC50 [7]: 2.3 µM
SMILES: Cc1c(S(=O)(=O)Nc2cccc(C(=O)O)c2)sc2ccc(C(C)C)cc12

- IC50 [8]: 0.398 µM
SMILES: O=C1NC=NC2C1C(c1ccccc1)=CN2c1ccc(Br)cc1 (stereo not given)

- IC50 [9]: 0.15 µM
SMILES: CC(C)OC(=O)c1cccc(-c2cc(S(=O)(=O)Nc3ccc(C(=O)O)c(O)c3)sc2Cl)c1

SMILES: O=C(CBr)NCCOP(=O)(O)O
- IC50 [10]: 2000 µM

SMILES: CC(C)C[C@H](NC(=O)[C@H](Cc1ccccc1)NC(=O)CNC(=O)[C@H](CO)NC(=O)[C@@H](N)Cc1ccc(O)cc1)C(=O)N[C@H](C(=O)O)[C@@H](C)O
- K [11]: 44 µM

SMILES: O=C(/C=C/c1ccc2ccc(C(F)(F)F)cc2n1)c1ccncc1 [PFK-158]
- Stability [12]: 37%
- MTD [13]: > 40 mg/kg
- half-life [14]: 10.5 h
- AUC [15]: 3240 ng·h/mL
- clearance [16]: 26 mL/min/kg

SMILES: COc1cccc([C@H](C)Nc2cc(-c3ccc4ncsc4c3)nc(C)n2)c1
- IC50 [17]: < 0.5 µM

- IC50 [9]: 0.2 µM
SMILES: O=C(O)c1ccc(NS(=O)(=O)c2cc(-c3ccc4c(c3)OCO4)c(Cl)s2)cc1O

- IC50 [8]: 0.398 µM
SMILES: O=C1NC=NC2C1C=C(c1ccc(Br)cc1)N2c1ccccc1 (stereo not given)

- K [11]: 18 µM
SMILES: CC(C)C[C@H](NC(=O)[C@H](CC(C)C)NC(=O)[C@H](Cc1ccccc1)NC(=O)[C@@H](N)CO)C(=O)N[C@@H](CCCN=C(N)N)C(N)=O

- IC50 [18]: 0.09 µM
- IC50 [19]: 0.09 µM
- IC50 [7]: 0.09 µM
SMILES: O=C(OCCO)c1ccc(NS(=O)(=O)c2cccc(-c3cc(F)ccc3O)c2)cc1O

- AUC [20]: 5070 ng·h/mL
- bioavailability [21]: 95%
- inhibition [3]: 81.5%
- half-life [22]: 5.8 h
SMILES: Nc1ccc(C(=O)c2cc3c(ccc4ccccc43)[nH]2)cc1

- IC50 [9]: 0.28 µM
SMILES: O=C(O)c1ccc(NS(=O)(=O)c2cccc(-c3ccc4ncccc4c3)c2)cc1O

- GI50 [23]: 18 µM
- inhibition [24]: 17%
- GI50 [25]: 18 µM
- GI50 [26]: 18 µM
- GI50 [27]: 15.1 µM
SMILES: Cc1ccc(/C=N/NC(=O)c2nnn(-c3nonc3N)c2-c2ccc([N+](=O)[O-])cc2)cc1

- AUC [28]: 1290 ng·h/mL
- bioavailability [29]: 38%
- Vd [30]: 2.5 L/kg
- Cmax [31]: 16900 ng/mL
- inhibition [3]: 26.2%
- half-life [32]: 5.5 h
SMILES: Cl.O=C(c1ccncc1)c1cc2c(ccc3ccccc32)[nH]1

- IC50 [33]: 0.0035 µM
SMILES: COc1ccc(C(Nc2cc(-c3ccc4ccn(C)c4c3)c3nccnc3c2)c2cnnn2C)cn1 (stereo not given)

- IC50 [8]: 0.631 µM
SMILES: O=C1NC=NC2C1C(c1ccc(Cl)cc1)=CN2c1ccccc1 (stereo not given)

- IC50 [9]: 0.29 µM
SMILES: O=C(O)c1ccc(NS(=O)(=O)c2cc(Cl)sc2Cl)cc1O

- IC50 [8]: 0.251 µM
SMILES: COc1ccc(C2=CN(c3cccc(OC)c3)C3N=CNC(=O)C23)cc1 (stereo not given)

- inhibition [34]: < 50%
- inhibition [35]: < 50%
- inhibition [36]: < 50%
SMILES: O=c1cc(-c2ccc(O)cc2)oc2c(O)c(O)c(O)c(O)c12

- microsomal CLint [37]: 29 µL/min/mg
- microsomal CLint [38]: 50 µL/min/mg
SMILES: Cn1cc([C@H](Nc2cc(-c3ccc4ccn(C)c4c3)c3nccnc3c2)c2cnnn2C)cn1

- K [11]: 3 µM
SMILES: N[C@H](Cc1c[nH]c2ccccc12)C(=O)NCC(=O)N[C@H](Cc1ccc(O)cc1)C(=O)O

- half-life [39]: 5.1 h
SMILES: O=C(/C=C/c1ccc2ccccc2n1)c1ccncc1

Reference: ChEMBL document CHEMBL5230092, “PFKFB3 inhibitors as potential anticancer agents: Mechanisms of action, current developments, and structure-activity relationships” (Eur J Med Chem, 2020)
